The molecules below were run against T1, TLR7 (Homo sapiens, UniProt Q9NYK1) (assay: TLR7 reporter gene assay (NF-κB induction, HEK-Blue-7 cells), agonism). Settings: not given.
T1 construct: expressed in transfected cells; host or cells: HEK293 (HEK-Blue-7 cells)
T1 sequence (Q9NYK1 27-1049): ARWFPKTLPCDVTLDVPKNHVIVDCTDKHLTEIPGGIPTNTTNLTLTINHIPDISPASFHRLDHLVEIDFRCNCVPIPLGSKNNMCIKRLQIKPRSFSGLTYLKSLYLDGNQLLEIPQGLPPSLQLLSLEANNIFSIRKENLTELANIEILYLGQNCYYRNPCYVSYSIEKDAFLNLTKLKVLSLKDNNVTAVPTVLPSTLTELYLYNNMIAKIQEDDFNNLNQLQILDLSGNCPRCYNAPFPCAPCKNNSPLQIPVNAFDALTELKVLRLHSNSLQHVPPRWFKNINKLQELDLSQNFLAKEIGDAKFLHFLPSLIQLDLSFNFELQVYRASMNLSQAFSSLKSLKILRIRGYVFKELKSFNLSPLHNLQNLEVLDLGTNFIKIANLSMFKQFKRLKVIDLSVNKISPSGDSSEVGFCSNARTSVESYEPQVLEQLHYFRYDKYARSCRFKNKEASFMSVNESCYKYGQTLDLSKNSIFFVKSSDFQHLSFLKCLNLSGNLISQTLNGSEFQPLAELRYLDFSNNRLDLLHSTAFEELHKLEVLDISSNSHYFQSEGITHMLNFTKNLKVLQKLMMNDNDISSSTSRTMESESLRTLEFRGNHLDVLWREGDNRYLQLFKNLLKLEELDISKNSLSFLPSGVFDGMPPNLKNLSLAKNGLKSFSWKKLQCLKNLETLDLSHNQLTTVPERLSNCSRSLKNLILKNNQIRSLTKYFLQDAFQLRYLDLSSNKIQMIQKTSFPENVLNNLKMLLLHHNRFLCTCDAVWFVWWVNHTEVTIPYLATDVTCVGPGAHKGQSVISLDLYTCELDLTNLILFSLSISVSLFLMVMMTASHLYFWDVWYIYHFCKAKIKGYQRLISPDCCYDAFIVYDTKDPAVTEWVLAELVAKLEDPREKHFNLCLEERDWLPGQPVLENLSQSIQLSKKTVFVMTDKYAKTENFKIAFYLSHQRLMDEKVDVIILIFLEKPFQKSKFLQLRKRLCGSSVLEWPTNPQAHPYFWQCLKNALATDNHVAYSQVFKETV
Assay type: cell-based
Excerpt: NF-κB induction: The induction of NF-κB was quantified using HEK-Blue-7 cells and HEK-Blue-8 cells as previously described by us.^8,24 HEK293 cells were stably transfected with human TLR7 (or human TLR8), MD2, and secreted alkaline phosphatase (sAP), and were maintained in HEK-Blue™ Selection medium containing zeocin and normocin. Stable expression of secreted alkaline phosphatase (sAP) under control of NF-κB/AP-1 promoters is inducible by the TLR7 (or TLR8) agonists, and extracellular sAP in the supernatant is proportional to NF-κB induction. HEK-Blue cells were incubated at a density of […] in a volume of 80 μL/well, in 384-well, flat-bottomed, cell culture-treated microtiter plates until confluency was achieved, and subsequently graded concentrations of stimuli. sAP was assayed spectrophotometrically using an alkaline phosphatase-specific chromogen (present in HEK-detection medium as supplied by the vendor) at 620 nm.
The induction of NF-κB was quantified using HEK-Blue-3, HEK-Blue-7 and HEK-Blue-8 cells as previously described by us.^8,24,51 HEK293 cells were stably transfected with human TLR3 (or human TLR7 or human TLR8), MD2, and secreted alkaline phosphatase (sAP), and were maintained in HEK-Blue™ Selection medium containing zeocin and normocin. Stable expression of secreted alkaline phosphatase (sAP) under control of NF-κB/AP-1 promoters is inducible by the TLR3 (or TLR7 or TLR8) agonists, and extracellular sAP in the supernatant is proportional to NF-κB induction. HEK-Blue cells were incubated at a density of ˜10^5 cells/ml in a volume of 80 μl/well, in 384-well, flat-bottomed, cell culture-treated microtiter plates until confluency was achieved, and subsequently graded concentrations of stimuli. sAP was assayed spectrophotometrically using an alkaline phosphatase-specific chromogen (present in HEK-detection medium as supplied by the vendor) at 620 nm.

With CCCCc1nc2c(N)nc3ccccc3c2n1Cc1cccc2ccccc12 [Compound 6a] as the molecule, how does the “TLR7-agonistic activity (in words)” value read?
Its value is “inactive”.

For CCCCc1nc2c(N)nc3ccccc3c2n1Cc1ccc(CNC(=S)Nc2cccc(-c3c4ccc(=O)cc-4oc4cc(O)ccc34)c2C(=O)O)cc1 [Compound 26, 2-(3-(4-((4-Amino-2-butyl-1H-imidazo [4,5-c]quinolin-1-yl)methyl)benzyl)thioureido)-6-(6-hydroxy-3-oxo-3H-xanthen-9-yl)benzoic Acid], which “TLR7-agonistic activity (in words)” value is on record?
The value was “retain TLR7 agonistic activity”.

How did the “TLR7-agonistic activity (in words)” value turn out when CCCCc1nc2c(N)nc3ccccc3c2n1Cc1ccc(CNC(=S)Nc2ccc(-c3c4ccc(=[N+](CC)CC)cc-4oc4cc(N(CC)CC)ccc34)c(C(=O)O)c2)cc1 [Compound 27, N-(9-(4-(3-(4-((4-amino-2-butyl-1H-imidazo[4,5-c]quinolin-1-yl)methyl)benzyl)thioureido)-2-carboxyphenyl)-6-(diethylamino)-3H-xanthen-3-ylidene)-N-ethylethanaminium] was run?
The value was “retain TLR7 agonistic activity”.

Same assay, conditions: Table 1; ND = not detected; read-out: TLR7 Agonism

For CCCCc1nc2c(NCCCCNc3nc4ccccc4c4c3nc(CCCC)n4Cc3ccccc3)nc3ccccc3c2n1Cc1ccccc1 [Compound 51a, N^1,N^4-bis(1-benzyl-2-butyl-1H-imidazo[4,5-c]quinolin-4-yl)butane-1,4-diamine], which EC50 is on record?
The EC50 was 2050 nM.

CCCCc1nc2c(NCCCCCCCCNc3nc4ccccc4c4c3nc(CCCC)n4Cc3ccccc3)nc3ccccc3c2n1Cc1ccccc1 [Compound 51b, N^1,N-bis(1-benzyl-2-butyl-1H-imidazo[4,5-c]quinolin-4-yl)octane-1,8-diamine] was tested. Which EC50 did it give?
Its EC50 is 560 nM.

Which EC50 does the source give for CCCCc1nc2c(NCCCCCCCCCCNc3nc4ccccc4c4c3nc(CCCC)n4Cc3ccccc3)nc3ccccc3c2n1Cc1ccccc1 [Compound 51c, N^1,N^10-bis(1-benzyl-2-butyl-1H-imidazo[4,5-c]quinolin-4-yl)decane-1,10-diamine] here?
The EC50 was 3000 nM.

Which EC50 does the source give for CCCCc1nc2c(NCCCCCCCCCCCCNc3nc4ccccc4c4c3nc(CCCC)n4Cc3ccccc3)nc3ccccc3c2n1Cc1ccccc1 [Compound 51d, N^1,N^12-bis(1-benzyl-2-butyl-1H-imidazo[4,5-c]quinolin-4-yl)dodecane-1,12-diamine] here?
The EC50 was 1420 nM.

With CCCCc1nc2c(N)nc3ccccc3c2n1Cc1ccc(CNC(=O)CCCCC(=O)NCc2ccc(Cn3c(CCCC)nc4c(N)nc5ccccc5c43)cc2)cc1 [Compound 52a, N^1,N^6-bis(4-((4-amino-2-butyl-1H-imidazo[4,5-c]quinolin-1-yl)methyl)benzyl)adipamide] as the molecule, how does the EC50 read?
Its EC50 is 110 nM.

CCCCc1nc2c(N)nc3ccccc3c2n1Cc1ccc(CNC(=O)CCCCCCC(=O)NCc2ccc(Cn3c(CCCC)nc4c(N)nc5ccccc5c43)cc2)cc1 [Compound 52b, N^1,N-bis(4-((4-amino-2-butyl-1H-imidazo[4,5-c]quinolin-1-yl)methyl)benzyl)octanediamide] was tested. Which EC50 did it give?
Its EC50 is 240 nM.

CCCCc1nc2c(N)nc3ccc([N+](=O)[O-])cc3c2n1Cc1ccc(CN)cc1 [Compound 53a, 1-(4-(aminomethyl)benzyl)-2-butyl-8-nitro-1H-imidazo[4,5-c]quinolin-4-amine] was tested. Which EC50 did it give?
The EC50 was 560 nM.

Which EC50 does the source give for CCCCc1nc2c(N)nc3ccc(N)cc3c2n1Cc1ccc(CN)cc1 [Compound 54a, 1-(4-(aminomethyl)benzyl)-2-butyl-1H-imidazo[4,5-c]quinoline-4,8-diamine] here?
Its EC50 is 450 nM.

Which EC50 does the source give for CCCCc1nc2c(N)nc3ccc(NC(=O)CCCCC(=O)Nc4ccc5nc(N)c6nc(CCCC)n(Cc7ccc(CN)cc7)c6c5c4)cc3c2n1Cc1ccc(CN)cc1 [Compound 55a, N^1,N^6-bis(4-amino-1-(4-(aminomethyl)benzyl)-2-butyl-1H-imidazo[4,5-c]quinolin-8-yl) adipamide] here?
The EC50 was 7240 nM.

With CCCCc1nc2c(N)nc3ccc(NC(=O)CCCCCCC(=O)Nc4ccc5nc(N)c6nc(CCCC)n(Cc7ccc(CN)cc7)c6c5c4)cc3c2n1Cc1ccc(CN)cc1 [Compound 55b, N^1,N^8-bis(4-amino-1-(4-(aminomethyl)benzyl)-2-butyl-1H-imidazo[4,5-c]quinolin-8-yl)octanediamide] as the molecule, how does the EC50 read?
The EC50 was 4020 nM.

Same assay, conditions: read-out: EC50 (agonistic activity)

Which EC50 does the source give for CCCCc1nc2c(N)nc3ccccc3c2n1Cc1ccc(-c2ccccc2)cc1 [Compound 6b, 1-(Biphenyl-4-ylmethyl)-2-butyl-1H-imidazo[4,5-c]quinolin-4-amine] here?
The EC50 was 396 nM.

Which EC50 does the source give for CCCCc1nc2c(N)nc3ccccc3c2n1Cc1ccc(CNC(=S)NCC(=O)NCC(=O)NCC(=O)OC)cc1 [Compound 29, Methyl 1-(4-((4-amino-2-butyl-1H-imidazo[4,5-c]quinolin-1-yl)methyl)phenyl)-6,9-dioxo-3-thioxo-2,4,7,10-tetraazadodecan-12-oate] here?
The EC50 was 269 nM.

Which EC50 does the source give for CCCCc1nc2c(N)nc3ccccc3c2n1Cc1ccc(CNC(=O)CCN2C(=O)CC(SC[C@@H](NC(=O)CC[C@@H](N)C(=O)OC)C(=O)NCC(=O)OC)C2=O)cc1 (stereo partly drawn) [Compound 30b, (2R)-methyl 2-amino-5-((2S)-3-(1-(3-(4-((4-amino-2-butyl-1H-imidazo[4,5-c]quinolin-1-yl)methyl)benzylamino)-3-oxopropyl)-2,5-dioxopyrrolidin-3-ylthio)-1-(2-methoxy-2-oxoethylamino)-1-oxopropan-2-ylamino)-5-oxopentanoate] here?
Its EC50 is 2200 nM.

— patent publication US10208037B2, “Toll-like receptor-7 and -8 modulatory 1H imidazoquinoline derived compounds” (The University of Kansas, priority 2011, dated 2019)
